The numbers were not newly measured in patent EP3623369A1, “NOVEL MORPHOLINYL AMINE COMPOUNDS FOR THE TREATMENT OF AUTOIMMUNE DISEASE” (F. Hoffmann-La Roche AG, priority 2018, dated 2020), which cites them from elsewhere.

SMILES strings stand for the structures.

The target in one data set is T1, hTLR7 (Homo sapiens, UniProt Q9NYK1).
T1 sequence (Q9NYK1 27-1049): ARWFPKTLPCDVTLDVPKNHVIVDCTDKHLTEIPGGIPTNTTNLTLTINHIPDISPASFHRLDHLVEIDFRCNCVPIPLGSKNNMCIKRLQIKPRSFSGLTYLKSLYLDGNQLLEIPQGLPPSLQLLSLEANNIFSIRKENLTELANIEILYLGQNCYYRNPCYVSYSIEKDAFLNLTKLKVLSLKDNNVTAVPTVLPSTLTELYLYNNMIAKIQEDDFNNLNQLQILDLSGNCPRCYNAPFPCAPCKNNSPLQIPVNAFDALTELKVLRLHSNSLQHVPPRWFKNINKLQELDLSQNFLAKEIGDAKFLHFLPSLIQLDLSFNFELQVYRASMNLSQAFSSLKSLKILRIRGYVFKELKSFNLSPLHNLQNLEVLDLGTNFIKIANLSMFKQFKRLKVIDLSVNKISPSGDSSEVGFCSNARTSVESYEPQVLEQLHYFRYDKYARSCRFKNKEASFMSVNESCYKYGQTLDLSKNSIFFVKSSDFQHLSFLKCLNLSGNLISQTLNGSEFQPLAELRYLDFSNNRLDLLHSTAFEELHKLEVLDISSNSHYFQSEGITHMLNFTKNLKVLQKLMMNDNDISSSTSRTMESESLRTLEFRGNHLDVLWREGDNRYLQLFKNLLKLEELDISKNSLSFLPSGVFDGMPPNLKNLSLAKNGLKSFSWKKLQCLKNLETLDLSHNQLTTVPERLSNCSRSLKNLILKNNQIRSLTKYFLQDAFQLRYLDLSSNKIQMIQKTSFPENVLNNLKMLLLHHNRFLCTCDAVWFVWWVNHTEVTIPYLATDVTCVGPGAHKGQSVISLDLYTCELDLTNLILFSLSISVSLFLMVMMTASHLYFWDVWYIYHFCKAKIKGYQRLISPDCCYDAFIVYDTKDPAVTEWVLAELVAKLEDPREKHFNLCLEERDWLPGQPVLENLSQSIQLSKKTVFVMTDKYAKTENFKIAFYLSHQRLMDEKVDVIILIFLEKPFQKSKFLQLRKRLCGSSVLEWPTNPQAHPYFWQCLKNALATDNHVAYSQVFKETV
Set-up: host or cells: HEK. Particulars: data disclosed in US20150105370; read-out: HEK/hTLR7 IC50; cited from earlier work.

A further data set deals with T2, hTLR9 (Homo sapiens, UniProt Q9NR96).
T2 sequence (Q9NR96 26-1032): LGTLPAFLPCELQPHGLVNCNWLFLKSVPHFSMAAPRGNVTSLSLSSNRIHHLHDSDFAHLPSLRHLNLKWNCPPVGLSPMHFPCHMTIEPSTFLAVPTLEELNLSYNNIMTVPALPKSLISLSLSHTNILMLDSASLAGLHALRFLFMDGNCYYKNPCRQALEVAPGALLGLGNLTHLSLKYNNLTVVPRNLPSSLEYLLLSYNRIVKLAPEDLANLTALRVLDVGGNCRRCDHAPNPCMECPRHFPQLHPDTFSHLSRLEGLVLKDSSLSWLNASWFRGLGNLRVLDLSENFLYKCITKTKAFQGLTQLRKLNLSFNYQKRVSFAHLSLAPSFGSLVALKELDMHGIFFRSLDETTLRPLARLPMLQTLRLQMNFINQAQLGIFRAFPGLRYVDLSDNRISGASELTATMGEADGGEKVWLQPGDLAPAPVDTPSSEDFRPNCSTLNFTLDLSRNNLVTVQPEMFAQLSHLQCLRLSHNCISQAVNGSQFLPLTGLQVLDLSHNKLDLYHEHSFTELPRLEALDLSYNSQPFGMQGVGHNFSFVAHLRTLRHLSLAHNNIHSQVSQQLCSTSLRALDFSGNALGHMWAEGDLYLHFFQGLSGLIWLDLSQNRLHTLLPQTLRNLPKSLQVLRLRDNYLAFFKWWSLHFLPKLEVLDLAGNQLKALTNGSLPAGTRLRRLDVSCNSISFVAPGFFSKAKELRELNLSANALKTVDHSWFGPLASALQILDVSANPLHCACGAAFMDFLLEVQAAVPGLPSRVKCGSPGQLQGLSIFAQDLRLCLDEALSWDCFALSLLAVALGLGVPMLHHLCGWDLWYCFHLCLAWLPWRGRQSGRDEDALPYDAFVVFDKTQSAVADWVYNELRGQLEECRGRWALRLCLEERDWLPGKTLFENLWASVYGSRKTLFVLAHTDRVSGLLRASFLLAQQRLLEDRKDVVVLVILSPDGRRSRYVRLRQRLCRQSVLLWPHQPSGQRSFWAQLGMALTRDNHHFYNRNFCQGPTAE
More on the design: host or cells: HEK. Particulars: data disclosed in US20150105370; read-out: HEK/hTLR9 IC50; cited from earlier work.

Turning to `C[C@@H]1CN(c2ccc(C#N)c3ncccc23)C[C@H](CNCc2ccccc2)O1` [ER-886509, reference compound], the results for the IC50 at hTLR7 and on hTLR9 were 0.044 µM and 3.94 µM, respectively.
